Assay results reported in patent US20260209260A1, “VECTORIZED NHC IRIDIUM(III) COMPLEXES AND USE THEREOF IN PHOTODYNAMIC THERAPY AND/OR DIAGNOSTIC” (CENTRE NATIONAL DE LA RECHERCHE SCIENTIFIQUE, priority 2022, published 2026).
Where two headings read alike, the source gives them in different places.

Experiments:
A549 lung cancer cells = assay: Cell viability assay (MTT), dark and blue light; assay type: cell-based, Human; conditions: for GI50: read-out: GI50; for Photosensitizing index (PI): A549, dark vs blue light
Procedure, shortened: (§1)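 Tumor lines and non-tumor murine MC3T3 osteoblasts and NIH-3T3 fibroblasts were seeded overnight and treated with complexes at 0.1% (v/v) DMSO for 72 h. Light samples were irradiated 10 min after 8 h of dark incubation. Viability was measured by MTT absorbance at 570 nm.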

T24 bladder cancer cells = assay: Cell viability assay (MTT), dark and blue light; assay type: cell-based, Human; conditions: for GI50: read-out: GI50; for Photosensitizing index (PI): T24, dark vs blue light
Procedure, shortened: as §1

MCF7 breast cancer cells = assay: Cell viability assay (MTT), dark and blue light; assay type: cell-based, Human; conditions: for Photosensitizing index (PI): MCF7, dark vs blue light; for GI50: read-out: GI50
Procedure, shortened: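 Absorbance of MTT formazan at 570 nm gives viability after 72 h exposure to the complexes in 0.1% (v/v) DMSO. Irradiated wells got 10 min of 458 nm light after 8 h of dark incubation.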

[1] = system: PC-3 prostate cancer cells (PSMA-negative); assay: Cell viability assay (MTT), dark and blue light; assay type: cell-based, Human; conditions: for GI50: read-out: GI50; for Photosensitizing index (PI): PC3, dark vs blue light
Procedure, shortened: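 Cells seeded 5,000–10,000/well, treated in 0.1% (v/v) DMSO either 72 h in dark or 8 h dark, 10 min 458 nm blue LED irradiation (9.6 W), then dark to 72 h. Viability by MTT, absorbance 570 nm; at least three independent experiments in triplicate.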

[2] = system: non-tumor cells (NIH-3T3 and MC3T3); assay: Cell viability assay (MTT), summary over the non-tumor models; assay type: cell-based, Murine; conditions: for mean PI value in NIH-3T3 and MC3T3 non-tumoral cells: dark vs blue light 458 nm
Procedure: Cells were grown in humidified incubators at 37° C. in 5% CO2. Murine MC3T3 osteoblast and NIH-3T3 fibroblast cells-used as non-tumor cell models-were cultured in a-MEM medium and DMEM medium supplemented with 10% fetal bovine serum (FBS) and 1% Penicillin/Streptomycin (P/S) antibiotics, respectively. Human T24 bladder, MGHU3 bladder, Scaber bladder, A549 lung, MCF7 breast, MiaPaCa2 pancreas cancer cells were cultured in DMEM medium supplemented with 10% FBS and 1% P/S antibiotics. […] Human Hela cervix and HepG2 liver cancer cells were cultured EMEM medium supplemented with 10% FBS and 1% P/S antibiotics.
MTT reagent (3-(4,5-dimethylthiazol-2-yl)-2,5-diphenyltetrazolium bromide) was used to determine cell death as originally described by Mosmann. Briefly, cells were seeded from 5,000 to 10,000 cells/well in 24-well plates (1 mL) depending on the cell type and allowed to attach overnight. The complexes were prepared in DMSO. The concentration of the complexes was calculated based on the elemental composition of the complexes determined by the elemental analyses. All cell viability experiments were carried out with a fixed concentration of 0.1% (v/v) DMSO. After 72 h of treatment, cells were incubated at 37° C. and 5% CO2 with 25 μL of MTT solution (5 mg/ml; Sigma-Aldrich) in 24-well plates for 3 to 4 h. After solubilization with 500 μL of DMSO, formazan was quantified spectrophotometrically with a microplate reader at 570 nm absorbance (ClarioSTAR, BMG LabTech). […] All the results were calculated from data obtained in at least three independent experiments performed in triplicate.
Two sets of experiments were conducted in parallel for each complex to be studied:
1. The cells were incubated with the different complexes (in the dark) for 72 h.
2. The cells were incubated for 8 h with the different complexes (in the dark), then irradiated for 10 min, followed by an incubation in the dark up to 72 h.

[3] = system: cancer cells (all tumor cell lines tested); assay: Cell viability assay (MTT), summary over the cancer cell lines tested; assay type: cell-based, Human; conditions: for PI values, mean over cancer cells: dark vs blue light 458 nm
Procedure, shortened: as §1

Compound	GI50 (A549 lung cancer cells; A549, blue light) [nM]	SI (vs MC3T3) (A549 lung cancer cells; A549, dark)	Photosensitizing index (PI) (A549 lung cancer cells)	SI (vs MC3T3) (T24 bladder cancer cells; T24, blue light)	SI (vs NIH-3T3) (T24 bladder cancer cells; T24, blue light)	GI50 (T24 bladder cancer cells; T24, blue light) [nM]	SI (vs NIH-3T3) (T24 bladder cancer cells; T24, dark)	Photosensitizing index (PI) (T24 bladder cancer cells)	SI (vs NIH-3T3) (MCF7 breast cancer cells; MCF7, blue light)	SI (vs MC3T3) (MCF7 breast cancer cells; MCF7, dark)	SI (vs NIH-3T3) (MCF7 breast cancer cells; MCF7, dark)	Photosensitizing index (PI) (MCF7 breast cancer cells)	GI50 (MCF7 breast cancer cells; MCF7, dark) [µM]	GI50 ([1]; PC3, blue light) [nM]	SI (vs NIH-3T3) ([1]; PC3, dark)	Photosensitizing index (PI) [1]	mean PI value in NIH-3T3 and MC3T3 non-tumoral cells [2] [fold]	PI values, mean over cancer cells [3] [fold]	other results
F[P-](F)(F)(F)(F)F.O=C(NCCCn1cc[n+]2[c]1[Ir-3]13([c]4ccccc4-c4c5ccccc5cc[n+]41)([c]1ccccc1-c1c4ccccc4cc[n+]13)[n+]1ccccc1-2)[c-]1cccc1.[Fe+2].c1cc[cH-]c1 [IV-h]	270	3.4	18.9	45.0	44.0	100	10.2	13.0	15.7	2.9	2.2	21.4	6	58	10.2	22.4	2.8	20.1	GI50 (T24 bladder cancer cells; T24, dark): 1300 nM; SI (vs MC3T3) ([1]; PC3, blue light): 77.6; GI50 ([1]; PC3, dark): 1300 nM; GI50 ([2]; blue light 458 nm, read-out: GI50 mean over non-tumor models, irradiated): 4.45 µM; selectivity for cancer cells over non-tumor cells, in words [3]: most selective effects under irradiated conditions; GI50 ([3]; blue light 458 nm, read-out: GI50 mean over cancer cells, irradiated): 155 nM; increase in cell toxicity in cancer cells compared to non-tumor models ([3]; irradiated conditions): 29 fold
F[P-](F)(F)(F)(F)F.O=C(NCCCn1cc[n+]2[c]1[Ir-3]13([c]4cccc5ccc6ccc[n+]1c6c45)([c]1cccc4ccc5ccc[n+]3c5c14)[n+]1ccccc1-2)[c-]1cccc1.[Fe+2].c1cc[cH-]c1 [IV-i]	1000	2.2	4.6	27.2	50.4	350	23.2	5.1	28.7	1.9	7.8	8.5	5.3	270	7.0	21.9	2.8	1.6	SI (vs NIH-3T3) (A549 lung cancer cells; A549, blue light): 17.8; GI50 (A549 lung cancer cells; A549, dark): 4600 nM; SI (vs MC3T3) ([1]; PC3, dark): 1.7
